Laboratory results taken from PMC9281089 (Journal of Translational Medicine, 2022).
Several values for one entry are separate records, joined by “and”; a condition that tells them apart may be missing. Equal entries are not always repeated. Structures can show the parent of a compound that is named as a salt.

Experiments:
[1] = biological target: SARS-CoV-2 S-protein RBD / ACE2 interaction (UniProt P0DTC2+Q9BYF1); assay: biochemical; design: species or system SARS-CoV-2 / human; settings: EC50 (HTRF), inhibition of binding of S-RBD to ACE2

With COc1ccc2c3ccnc4ccc(=O)n(c2c1)c43 [TS-984, 9-Methoxycanthin-6-one] the EC50 [1] was 36.2 µM and the “cytotoxicity (comparative)” value (cells; compared with tannic acid and nafamostat mesilate) was “lower cytotoxicity”.
For O=C1c2ccccc2C(=O)c2ccccc21 [TS-1276, anthraquinone], the EC50 [1] was 55.9 µM and 16.4 µM.
For O=C(OC[C@H]1O[C@@H](OC(=O)c2cc(O)c(O)c(OC(=O)c3cc(O)c(O)c(O)c3)c2)[C@H](OC(=O)c2cc(O)c(O)c(OC(=O)c3cc(O)c(O)c(O)c3)c2)[C@@H](OC(=O)c2cc(O)c(O)c(OC(=O)c3cc(O)c(O)c(O)c3)c2)[C@@H]1OC(=O)c1cc(O)c(O)c(OC(=O)c2cc(O)c(O)c(O)c2)c1)c1cc(O)c(O)c(OC(=O)c2cc(O)c(O)c(O)c2)c1 [tannic acid, reference compound], the cytotoxicity to cells (cells; at a high concentration (> 30 µM)) was “strong cytotoxicity” and the “cytotoxicity at effective concentration” value (cells; when the effective concentration is applied) was “higher cytotoxicity that leads to cell death”.
In the case of N=C(N)c1ccc2cc(OC(=O)c3ccc(N=C(N)N)cc3)ccc2c1 [Nafamostat mesylate, reference compound], the EC50 [1] is reported as 11.3 µM.
